Laboratory results taken from US10590126B2, “Non-selective protease activated receptor 4 ALA120THR isoform antagonist” (THOMAS JEFFERSON UNIVERSITY, priority 2015, dated 2020).
Entries after “also recorded” stand apart in the source; their conditions may differ.

What was measured:
[1] = test system: PAR4 Ala120 and Thr120 variants; experiment: PAR4-induced platelet activation, platelets of subjects of the 3 genotypes (FIG. 1); type: cell-based, human; settings: subjects with and without the Thr120 variant (Ala/Ala, Ala/Thr, Thr/Thr)
Experimental: FIG. 1. Summary of results using all three PAR4 variants. […] Data are shown as the average of the percent of maximal activation, where maximal activation was the DMSO data.
[…] of mouse or PAC1 was added to each sample of platelets that contained compounds. 5 mL of compound was added to inhibitor samples. Tyrodes with 1% final concentration, DMSO were added to inhibitor samples with no controls. Each sample was incubated for two minutes. 5.5 mL of PAR4-AP was added to all samples except the no agonist control. Final concentrations of samples=[…]. Samples were gently mixed and sat at room temperature for 10 minutes. 50 mL of 2% paraformaldehyde was added to each sample and sat at room temperature for 10 minutes. 500 mL of Tyrodes were then added and samples were run of the C6 Accuri.

[2] = test system: platelets expressing PAR4 Ala120; settings: individuals expressing PAR4 Ala120; cited from earlier work
[3] = test system: platelets expressing PAR4 Thr120; settings: individuals expressing PAR4 Thr120; cited from earlier work

SMILES	blockade of PAR4-induced platelet activation [1]	blockade of PAR4-induced platelet activation ([1]; listed as VU478046-1)	inhibiting platelet aggregation [2]	inhibiting platelet aggregation [3]
Cn1c(CO)c(-c2ccccc2)c2cc([N+](=O)[O-])ccc21 [VU0099704-4]	effectively blocked; also recorded: greatest effective blockade			
CCCNCc1c(-c2ccccc2)c2cc([N+](=O)[O-])ccc2n1C [VU0478046-1]	effectively blocked	greatest effective blockade		
CNCc1c(-c2ccccc2)c2cc([N+](=O)[O-])ccc2n1C [VU0478944-1]	effectively blocked; also recorded: greatest effective blockade			
COC(=O)[C@H](c1ccccc1Cl)N1CCc2sccc2C1 [clopidogrel]			selective	not effective
